Source: patent publication US11814392B2, “Chromenopyridine-based compounds and methods of making and use thereof” (Rosalind Franklin University of Medicine and Science, priority 2020, dated 2023)

Tests used:
HL-60 (TB) = assay: NCI 60 five-dose screening, HL-60 (TB); assay type: cell-based, human; conditions: HL-60 (TB) (Leukemia), 48 h
SN12C = assay: NCI 60 five-dose screening, SN12C; assay type: cell-based, human; conditions: SN12C (Renal Cancer), 48 h
[1] = tested on: 60 human cancer cell lines; assay: NCI 60 One-Dose Screen; assay type: cell-based
From the text: The one-dose assay reported the growth relative to the no-drug control, and relative to the time zero number of cells. This allowed for the detection of both growth inhibition (values between 0 and 100) and lethality (values less than 0). For example, a value of 100 means no growth inhibition. A value of 40 would mean 60% growth inhibition. A value of 0 means no net growth over the course of the experiment. A value of −40 would mean 40% lethality. A value of −100 means all cells are dead.

SR = assay: NCI 60 five-dose screening, SR; conditions: Homo sapiens, 48 h
Protocol: (§1) The National Cancer Institute's Developmental Therapeutic preclinical 60 human cancer cell lines were used for an in vitro screen. […] The one-dose and five-dose experiments were conducted according to standard NCI protocols.
The human tumor cell lines of the cancer screening panel are grown in RPMI 1640 medium containing 5% fetal bovine serum and 2 mM L-glutamine. For a typical screening experiment, cells are inoculated into 96 well microtiter plates in 100 μL at plating densities ranging from 5,000 to 40,000 cells/well depending on the doubling time of individual cell lines. […]
(§2) Following drug addition, the plates are incubated for an additional 48 h at 37° C., 5% CO2, 95% air, and 100% relative humidity. […] Bound stain is subsequently solubilized with 10 mM trizma base, and the absorbance is read on an automated plate reader at a wavelength of 515 nm. […] Using the seven absorbance measurements [time zero, (Tz), control growth, (C), and test growth in the presence of drug at the five concentration levels (Ti)], the percentage growth is calculated at each of the drug concentrations levels. Percentage growth inhibition is calculated as: [(Ti−Tz)/(C−Tz)]×100 for concentrations for which Ti>/=Tz [(Ti−Tz)/Tz]×100 for concentrations for which Ti<Tz.
Three dose response parameters are calculated for each experimental agent. […]

KM12 = assay: NCI 60 five-dose screening, KM12
Protocol: as §1
(§3) The human tumor cell lines of the cancer screening panel are grown in RPMI 1640 medium containing 5% fetal bovine serum and 2 mM L-glutamine. For a typical screening experiment, cells are inoculated into 96 well microtiter plates in 100 μL at plating densities ranging from 5,000 to 40,000 cells/well depending on the doubling time of individual cell lines. After cell inoculation, the microtiter plates are incubated at 37° C., 5% CO2, 95% air and 100% relative humidity for 24 h prior to addition of experimental drugs.
(§4) After 24 h, two plates of each cell line are fixed in situ with TCA, to represent a measurement of the cell population for each cell line at the time of drug addition (Tz). […]
as §2
(§5) Three dose response parameters are calculated for each experimental agent. […] The drug concentration resulting in total growth inhibition (TGI) is calculated from Ti=Tz. […] Values are calculated for each of these three parameters if the level of activity is reached; however, if the effect is not reached or is exceeded, the value for that parameter is expressed as greater or less than the maximum or minimum concentration tested.

U251 = assay: NCI 60 five-dose screening, U251
Protocol: as §1, §3, §4, §2, §5

A498 = assay: NCI 60 five-dose screening, A498
Protocol: The one-dose and five-dose experiments were conducted according to standard NCI protocols.
as §3
After 24 h, two plates of each cell line are fixed in situ with TCA, to represent a measurement of the cell population for each cell line at the time of drug addition (Tz). Experimental drugs are solubilized in dimethyl sulfoxide at 400-fold the desired final maximum test concentration and stored frozen prior to use. […]
as §2, §5

PC-3 = assay: NCI 60 five-dose screening, PC-3
Protocol: as §1, §3, §4, §2, §5

TK-10 = assay: NCI 60 five-dose screening, TK-10
Protocol: as §1, §3, §4, §2, §5

LOX IMVI = assay: NCI 60 five-dose screening, LOX IMVI; conditions: 48 h
Protocol: as §1, §3, §4, §2, §5

In the case of `COc1ccc(SC2c3cc(OC)c(OC)cc3Oc3nc(N)c(C#N)c(N)c32)cc1` (stereo not shown) [Compound 1, 2,4-diamino-7,8-dimethoxy-5-((4-methoxyphenyl)thio)-5H-chromeno[2,3-b]pyridine-3-carbonitrile], the TGI (HL-60 (TB)) is reported as 1.27 µM, the GI50 (HL-60 (TB); Homo sapiens) is reported as 340 nM and the GI50 (SN12C; Homo sapiens) is reported as 1060 nM. For the same compound, the TGI (SN12C) was 2.49 µM, the “growth inhibition in the One-Dose Screen” value [1] was “significant growth inhibition” and the GI50 (SR) was 270 nM. For the same compound, the CC50 (SR; read-out: LC50) was over 100 µM, the GI50 (KM12; Homo sapiens, KM12, 48 h) was 1530 nM and the CC50 (KM12; Homo sapiens, KM12, 48 h, read-out: LC50) was 6.06 µM. It also gave a TGI (KM12; KM12 (Colon Cancer), five-dose, 48 h) of 3.05 µM, a GI50 (U251; Homo sapiens, U-251, 48 h) of 950 nM and a CC50 (U251; Homo sapiens, U-251, 48 h, read-out: LC50) of 4.83 µM. For the same compound, the TGI (U251; U251 (CNS Cancer), five-dose, 48 h) was 2.18 µM, the TGI (A498; A498 (Renal Cancer), five-dose, 48 h) was 2.85 µM and the GI50 (A498; Homo sapiens, A498, 48 h) was 1420 nM. It also gave a CC50 (A498; Homo sapiens, A498, 48 h, read-out: LC50) of 5.73 µM, a GI50 (PC-3; Homo sapiens, PC-3, 48 h) of 1160 nM and a CC50 (PC-3; Homo sapiens, PC-3, 48 h, read-out: LC50) of 5.37 µM. The TGI (PC-3; PC-3 (Prostate Cancer), five-dose, 48 h) was 2.49 µM, the GI50 (TK-10; Homo sapiens, TK-10, 48 h) was 1630 nM and the CC50 (TK-10; Homo sapiens, TK-10, 48 h, read-out: LC50) was 5.55 µM. It also gave a TGI (TK-10; TK-10 (Renal Cancer), five-dose, 48 h) of 3.01 µM, a GI50 (LOX IMVI; Homo sapiens, LOX IMVI) of 580 nM and a CC50 (LOX IMVI; Homo sapiens, LOX IMVI, read-out: LC50) of 4.37 µM. It also gave a TGI (LOX IMVI; LOX IMVI (Melanoma), five-dose) of 1.86 µM.
